Laboratory results as given in US20260007681A1, “INDOLE DERIVATIVES AS ESTROGEN RECEPTOR DEGRADERS” (REGENTS OF THE UNIVERSITY OF MICHIGAN, priority 2022, published 2026).

target: ER (Homo sapiens (Human), UniProt P03372); assay: Western blot analysis (Compounds B1-B278); format: cell-based; details: ER degradation by traditional Western blot; DC50 classes
Summary of the method: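 Relative target-protein levels come from densitometry of immunoblots, normalized to GAPDH. Lysates from treated cells were prepared in RIPA buffer (pH 7.6) containing protease inhibitors, and equal protein amounts, checked by BCA, were separated on 10% gels and blotted onto PVDF.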

Chain of ER (P03372 whole entry): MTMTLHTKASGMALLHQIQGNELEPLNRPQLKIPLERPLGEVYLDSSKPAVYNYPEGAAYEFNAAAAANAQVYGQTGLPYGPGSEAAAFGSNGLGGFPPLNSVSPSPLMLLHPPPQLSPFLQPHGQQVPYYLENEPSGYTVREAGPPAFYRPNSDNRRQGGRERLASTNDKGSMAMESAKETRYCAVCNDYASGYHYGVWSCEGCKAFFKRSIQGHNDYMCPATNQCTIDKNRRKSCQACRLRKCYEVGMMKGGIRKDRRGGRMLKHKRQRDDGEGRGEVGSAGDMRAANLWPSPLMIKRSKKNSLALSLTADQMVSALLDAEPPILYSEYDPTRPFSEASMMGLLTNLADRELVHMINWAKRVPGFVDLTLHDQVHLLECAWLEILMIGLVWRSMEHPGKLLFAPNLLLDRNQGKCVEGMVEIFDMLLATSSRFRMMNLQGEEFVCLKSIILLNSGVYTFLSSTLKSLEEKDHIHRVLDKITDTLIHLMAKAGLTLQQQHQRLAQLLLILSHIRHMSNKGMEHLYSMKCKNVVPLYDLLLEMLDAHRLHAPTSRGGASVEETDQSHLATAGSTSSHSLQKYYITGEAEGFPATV

| Compound | Traditional Western Degradation Potency |
| --- | --- |
| C[C@@H]1Cc2c([nH]c3ccccc23)[C@@H](c2c(F)cc(N3CC4(CN(C(=O)CN5Cc6cc7c(cc6C5)C(=O)N(C5CCC(=O)NC5=O)C7)C4)C3)cc2F)N1CC(F)F (stereo partly drawn) [Compound B14, 3-(6-(2-(6-(4-((1R,3R)-2-(2,2-difluoroethyl)-3-methyl-2,3,4,9-tetrahydro-1H-pyrido[3,4-b]indol-1-yl)-3,5-difluorophenyl)-2,6-diazaspiro[3.3]heptan-2-yl)-2-oxoethyl)-1-oxo-3,5,6,7-tetrahydropyrrolo[3,4-b]isoindol-2(1H)-yl)piperidine-2,6-dione] | A (“A”: <10 nM) |
| C[C@@H]1Cc2c([nH]c3ccccc23)[C@@H](c2c(F)cc(N3CC(C(=O)N4CCC(CN5Cc6cc7c(cc6C5)C(=O)N(C5CCC(=O)NC5=O)C7=O)CC4)C3)cc2F)N1CC(F)F (stereo partly drawn) [Compound B61, 6-((1-(1-(4-((1R,3R)-2-(2,2-difluoroethyl)-3-methyl-2,3,4,9-tetrahydro-1H-pyrido[3,4-b]indol-1-yl)-3,5-difluorophenyl)azetidine-3-carbonyl)piperidin-4-yl)methyl)-2-(2,6-dioxopiperidin-3-yl)-6,7-dihydropyrrolo[3,4-f]isoindole-1,3(2H,5H)-dione] | A (“A”: <10 nM) |
| C[C@@H]1Cc2c([nH]c3ccccc23)[C@@H](c2c(F)cc(N3CC(CC(=O)N4CC(N5Cc6cc7c(cc6C5)C(=O)N(C5CCC(=O)NC5=O)C7)C4)C3)cc2F)N1CC(F)F (stereo partly drawn) [Compound B71, 3-(6-(1-(2-(1-(4-((1R,3R)-2-(2,2-difluoroethyl)-3-methyl-2,3,4,9-tetrahydro-1H-pyrido[3,4-b]indol-1-yl)-3,5-difluorophenyl)azetidin-3-yl)acetyl)azetidin-3-yl)-1-oxo-3,5,6,7-tetrahydropyrrolo[3,4-f]isoindol-2(1H)-yl)piperidine-2,6-dione] | B (“B”: 10-100 nM) |
| C[C@@H]1Cc2c([nH]c3ccccc23)[C@@H](c2c(F)cc(N3CCC(N4CC(CC(=O)N5Cc6cc7c(cc6C5)C(=O)N(C5CCC(=O)NC5=O)C7)C4)CC3)cc2F)N1CC(F)F (stereo partly drawn) [Compound B7, 3-(6-(2-(1-(1-(4-((1R,3R)-2-(2,2-difluoroethyl)-3-methyl-2,3,4,9-tetrahydro-1H-pyrido[3,4-b]indol-1-yl)-3,5-difluorophenyl)piperidin-4-yl)azetidin-3-yl)acetyl)-1-oxo-3,5,6,7-tetrahydropyrrolo[3,4-f]isoindol-2(1H)-yl)piperidine-2,6-dione] | B (“B”: 10-100 nM) |

More lines, now with the values ahead:

| Traditional Western Degradation Potency | Compound |
| --- | --- |
| C (“C”: >100 nM) | C[C@@H]1Cc2c([nH]c3ccccc23)[C@@H](c2c(F)cc(N3CCC4(CC3)CN(CC3Cc5cc6c(cc5C3)C(=O)N(C3CCC(=O)NC3=O)C6=O)C4)cc2F)N1CC(F)F (stereo partly drawn) [Compound B205, 6-((7-(4-((1R,3R)-2-(2,2-difluoroethyl)-3-methyl-2,3,4,9-tetrahydro-1H-pyrido[3,4-b]indol-1-yl)-3,5-difluorophenyl)-2,7-diazaspiro[3.5]nonan-2-yl)methyl)-2-(2,6-dioxopiperidin-3-yl)-6,7-dihydrocyclopenta[f]isoindole-1,3(2H,5H)-dione] |
| B (“B”: 10-100 nM) | C[C@@H]1Cc2c([nH]c3ccccc23)[C@@H](c2cnc(N3CCC(CN4CCC(N5Cc6cc7c(cc6C5)C(=O)N(C5CCC(=O)NC5=O)C7=O)CC4)CC3)nc2)N1CC(F)F (stereo partly drawn) [Compound B223, 6-(1-((1-(5-((1R,3R)-2-(2,2-difluoroethyl)-3-methyl-2,3,4,9-tetrahydro-1H-pyrido[3,4-b]indol-1-yl)pyrimidin-2-yl)piperidin-4-yl)methyl)piperidin-4-yl)-2-(2,6-dioxopiperidin-3-yl)-6,7-dihydropyrrolo[3,4-f]isoindole-1,3(2H,5H)-dione] |
